Experimental data taken from PubChem BioAssay (NCI).
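Growth conditions: 96-well plates. Treatment: test compound, 48 hours, 5 concentrations. Analysis: linear interpolation between bracketing concentrations; unreached endpoints set to highest concentration. TGI denotes the concentration required for complete inhibition of growth.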

Experiments:
Assay in all cases: inhibition of tumour cell growth, NCI panel, 48 h
SF-295 CNS = tested on: SF-295 CNS
MOLT-4 leukemia = tested on: MOLT-4 leukemia
NCI/ADR-RES ovarian = tested on: NCI/ADR-RES ovarian
SW-620 colon = tested on: SW-620 colon
SF-268 CNS = tested on: SF-268 CNS
K-562 leukemia = tested on: K-562 leukemia
HCC-2998 colon = tested on: HCC-2998 colon
UO-31 renal = tested on: UO-31 renal
SNB-75 CNS = tested on: SNB-75 CNS
HL-60(TB) leukemia = tested on: HL-60(TB) leukemia
MDA-MB-231 breast = tested on: MDA-MB-231 breast
SK-MEL-2 melanoma = tested on: SK-MEL-2 melanoma
TK-10 renal = tested on: TK-10 renal
NCI-H522 lung = tested on: NCI-H522 lung
HS 578T breast = tested on: HS 578T breast
NCI-H226 lung = tested on: NCI-H226 lung
KM12 colon = tested on: KM12 colon
MALME-3M melanoma = tested on: MALME-3M melanoma
HOP-92 NSCLC = tested on: HOP-92 NSCLC
UACC-257 melanoma = tested on: UACC-257 melanoma
NCI-H460 lung = tested on: NCI-H460 lung
CCRF-CEM leukemia = tested on: CCRF-CEM leukemia
OVCAR-5 ovarian = tested on: OVCAR-5 ovarian
SK-MEL-28 melanoma = tested on: SK-MEL-28 melanoma
A498 renal = tested on: A498 renal
HT29 colon = tested on: HT29 colon
SNB-19 CNS = tested on: SNB-19 CNS
EKVX NSCLC = tested on: EKVX NSCLC
MCF7 breast = tested on: MCF7 breast
RPMI-8226 leukemia = tested on: RPMI-8226 leukemia
HCT-15 colon = tested on: HCT-15 colon
MDA-N = tested on: MDA-N
A549 NSCLC = tested on: A549 NSCLC
U251 CNS = tested on: U251 CNS
OVCAR-8 ovarian = tested on: OVCAR-8 ovarian
OVCAR-4 ovarian = tested on: OVCAR-4 ovarian
UACC-62 melanoma = tested on: UACC-62 melanoma
OVCAR-3 ovarian = tested on: OVCAR-3 ovarian
HCT-116 colon = tested on: HCT-116 colon
LOX IMVI melanoma = tested on: LOX IMVI melanoma
NCI-H23 lung = tested on: NCI-H23 lung
IGROV1 ovarian = tested on: IGROV1 ovarian
PC-3 prostate = tested on: PC-3 prostate
RXF 393 renal = tested on: RXF 393 renal
MDA-MB-435 = tested on: MDA-MB-435
T-47D breast = tested on: T-47D breast
786-0 renal = tested on: 786-0 renal
HOP-62 NSCLC = tested on: HOP-62 NSCLC
ACHN renal = tested on: ACHN renal
DU-145 prostate = tested on: DU-145 prostate
SK-OV-3 ovarian = tested on: SK-OV-3 ovarian
SK-MEL-5 melanoma = tested on: SK-MEL-5 melanoma
CAKI-1 renal = tested on: CAKI-1 renal
SN12C renal = tested on: SN12C renal
SF-539 CNS = tested on: SF-539 CNS
COLO 205 colon = tested on: COLO 205 colon
SR leukemia = tested on: SR leukemia

Compound: COc1ccc2cc(CN3CCC(C4CCN(Cc5ccc6cc(OC)ccc6c5)CC4)CC3)ccc2c1
- TGI (SF-295 CNS): 7.57 µM
- TGI (MOLT-4 leukemia): 5.11 µM
- TGI (NCI/ADR-RES ovarian): 25.9 µM
- TGI (SW-620 colon): 7.98 µM
- TGI (SF-268 CNS): 10.8 µM
- TGI (K-562 leukemia): 2.12 µM
- TGI (HCC-2998 colon): 0.367 µM
- TGI (UO-31 renal): 9.78 µM
- TGI (SNB-75 CNS): 11 µM
- TGI (HL-60(TB) leukemia): 4.31 µM
- TGI (MDA-MB-231 breast): 9.97 µM
- TGI (SK-MEL-2 melanoma): 12.7 µM
- TGI (TK-10 renal): 6.18 µM
- TGI (NCI-H522 lung): 6.56 µM
- TGI (HS 578T breast): 11.8 µM
- TGI (NCI-H226 lung): 38.3 µM
- TGI (KM12 colon): 6.31 µM
- TGI (MALME-3M melanoma): 4.51 µM
- TGI (HOP-92 NSCLC): 8.91 µM
- TGI (UACC-257 melanoma): 3.88 µM
- TGI (NCI-H460 lung): 5.04 µM
- TGI (CCRF-CEM leukemia): 4.33 µM
- TGI (OVCAR-5 ovarian): > 76.7 µM
- TGI (SK-MEL-28 melanoma): 4.75 µM
- TGI (A498 renal): 22.2 µM
- TGI (HT29 colon): 6.64 µM
- TGI (SNB-19 CNS): 16.6 µM
- TGI (EKVX NSCLC): 29.8 µM
- TGI (MCF7 breast): > 100 µM
- TGI (RPMI-8226 leukemia): 4.19 µM
- TGI (HCT-15 colon): 3.04 µM
- TGI (MDA-N): 4.06 µM
- TGI (A549 NSCLC): > 100 µM
- TGI (U251 CNS): 8.41 µM
- TGI (OVCAR-8 ovarian): 19.4 µM
- TGI (OVCAR-4 ovarian): 18.2 µM
- TGI (UACC-62 melanoma): 3.74 µM
- TGI (OVCAR-3 ovarian): 9.74 µM
- TGI (HCT-116 colon): 10.6 µM
- TGI (LOX IMVI melanoma): 5.66 µM
- TGI (NCI-H23 lung): 35.9 µM
- TGI (IGROV1 ovarian): 21.6 µM
- TGI (PC-3 prostate): 48.7 µM
- TGI (RXF 393 renal): 11.8 µM
- TGI (MDA-MB-435): 3.58 µM
- TGI (T-47D breast): 4.45 µM
- TGI (786-0 renal): 4.23 µM
- TGI (HOP-62 NSCLC): 22.7 µM
- TGI (ACHN renal): 21.7 µM
- TGI (DU-145 prostate): 41.6 µM
- TGI (SK-OV-3 ovarian): > 72.8 µM
- TGI (SK-MEL-5 melanoma): 3.12 µM
- TGI (CAKI-1 renal): 8.42 µM
- TGI (SN12C renal): 24 µM
- TGI (SF-539 CNS): > 100 µM
- TGI (COLO 205 colon): 2.98 µM
- TGI (SR leukemia): 3.6 µM
